Measured values as given in paper PMC11189382, “Structural basis of connexin-36 gap junction channel inhibition” (Cell Discovery, 2024).

Legend:
Cx36 [1] = target: T1, Cx36 (Homo sapiens, UniProt Q9UKL4); assay: cryo-EM structure of the complex; type: binding; details: detergent, pore pocket between TM1 and TM2 at interface of two monomers
T1 construct: gene GJD2; purified in detergent; gap junction channel of docked hexameric hemichannels
T1 sequence (Q9UKL4 1-321): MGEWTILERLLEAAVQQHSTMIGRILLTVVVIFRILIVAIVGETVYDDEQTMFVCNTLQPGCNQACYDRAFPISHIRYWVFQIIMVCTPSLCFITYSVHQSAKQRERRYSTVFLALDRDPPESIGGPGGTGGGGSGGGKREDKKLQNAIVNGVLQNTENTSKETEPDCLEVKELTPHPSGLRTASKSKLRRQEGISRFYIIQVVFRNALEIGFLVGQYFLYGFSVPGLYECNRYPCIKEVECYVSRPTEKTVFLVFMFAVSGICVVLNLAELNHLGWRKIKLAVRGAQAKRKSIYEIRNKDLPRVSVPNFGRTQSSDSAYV

Cx36 [2] = target: T1, Cx36; assay: ligand binding assay with purified Cx36

Row | SMILES | cryo-EM structure of the complex (Cx36 [1]; 1 mM racemic drug) | Kd (Cx36 [2]) | cryo-EM structure of the complex (Cx36 [1]; 1 mM drug)
1 | OC(c1cc(C(F)(F)F)nc2c(C(F)(F)F)cccc12)C1CCCCN1 (racemic) [mefloquine] | although we used a racemic mixture of the drug, the high-resolution structure captured the S/R-enantiomer | 10.4 ± 1.3 µM | 
2 | C=C[C@H]1CN2CC[C@H]1C[C@@H]2[C@@H](O)c1ccnc2ccc(OC)cc12 [quinidine] |  | 58 ± 9 µM | Cx36–quin, and Cx36–quid feature additional densities, corresponding to six bound drugs per Cx36 hexamer
3 | C=C[C@H]1CN2CC[C@H]1C[C@H]2[C@H](O)c1ccnc2ccc(OC)cc12 [quinine] |  | 29 ± 5.3 µM | Cx36–quin, and Cx36–quid feature additional densities, corresponding to six bound drugs per Cx36 hexamer
